From patent US20210346366A1, “CH24H INHIBITORS FOR PAIN USE” (Takeda Pharmaceutical Company Limited, priority 2018, published 2021)

Assays:
NMDA receptors = conditions: read-out: EC50 as positive allosteric modulator of NMDA receptors; cited from earlier work
[1] = tested on: rat cortical spreading depression (CSD) model; assay: rat cortical spreading depression (CSD) model, KCl-induced; type: in vivo; conditions: female Wistar rats, 10 mg/kg orally once daily for 6 days
Protocol: The following Example provides data from a rat cortical spreading depression (CSD) model, which recapitulates symptoms seen in migraine patients with aura. (2R)-1-((1-(4-(4-Methyl-1H-pyrazol-1-yl)pyridin-3-yl)piperidin-4-yl)carbonyl)pyrrolidine-2-carbonitrile was tested in the CSD model for its potential effects on hyperperfusion events and cortical direct current (DC)-potentials. Adult female Wistar rats from Charles River Germany were used for the experiment. Animals were housed at a standard temperature (22±1° C.) and in a light-controlled environment (lights on from 7 am to 8 pm) with ad libitum access to food and water. Rats were orally treated with vehicle (0.5% methylcellulose in water) or (2R)-1-((1-(4-(4-methyl-1H-pyrazol-1-yl)pyridin-3-yl)piperidin-4-yl)carbonyl)pyrrolidine-2-carbonitrile at the dose of 10 mg/kg once daily for 6 days (n=8). One hour after the last dosing, rats were anesthetized with 5% isoflurane (in 70% N2O and 30% O2; flow 300 ml/min), and placed in a stereotactic frame.
During the operation and CSD the concentration of anesthetic was reduced to 1-1.5%. The rectal temperature was maintained at 37.0±1.0° C. with a homeothermic blanket system. The skin was opened by a medial incision and retracted laterally. Three burr holes were drilled under saline cooling over the right hemisphere at the following coordinates (mm from bregma): (1) posterior 4.5, lateral, 2.0 (occipital cortex): KCl application site; (2) posterior 0.5, lateral 2.0 (parietal cortex) (3) anterior 2, lateral 2 (frontal cortex). A laser-Doppler flow probe (Oxyflow, Oxford Optronics, UK) to monitor cerebral blood flow (CBF) was placed in the parietal cortex burr holes on the intact dura. An invasive Ag/AgCl electrode for measuring DC potential shifts was placed in the frontal cortex burr holes on the intact dura. For the DC-potential measurement, a reference electrode was fixed in the neck. […] The number of KCl-induced CSDs was checked over the period of 2 hours and the number of CBF changes was also measured. […]

[2] = tested on: mouse model of chronic post-ischemic pain; assay: mouse model of chronic post-ischemic pain (CRPS model), von Frey paw withdraw threshold; type: in vivo; conditions: 30 mg/kg orally once daily for 7 days
Protocol: The following Example provides data from a mouse model of chronic post-ischemic pain, which recapitulates symptoms seen in CRPS patients with peripheral tissue injury and subsequent progression of allodynia. (4-Benzyl-4-hydroxypiperidin-1-yl) (2,4′-bipyridin-3-yl)methanone was tested in the CRPS model for its potential effects on pain. Following 3-hour ischemia and 0.5-hour reperfusion given at a hind limb, mice (C57) were orally treated with (4-benzyl-4-hydroxypiperidin-1-yl) (2,4′-bipyridin-3-yl)methanone at the dose of 30 mg/kg once daily for 7 days (n=8). Paw withdraw threshold was evaluated with von Frey filaments as a behavioral index of mechanical allodynia at 0 h for the base line, 6 h, Days 1, 2, 4 and 7. The cumulative score of paw withdraw threshold over the study period was 17.7 in the sham-treated control group without ischemia/reperfusion injury. In the groups given ischemic injury, the cumulative score was 9.0 and 16.2 for the vehicle control and (4-benzyl-4-hydroxypiperidin-1-yl) (2,4′-bipyridin-3-yl)methanone group, respectively.

In the case of `CC(C)[C@@H](O)CC[C@@H](C)[C@H]1CC[C@H]2[C@@H]3CC=C4C[C@@H](O)CC[C@]4(C)[C@H]3CC[C@]12C` [24(S)-hydroxycholesterol], the EC50 (NMDA receptors) is given as 1200 nM.
For `Cc1cnn(-c2ccncc2N2CCC(C(=O)N3CCC[C@@H]3C#N)CC2)c1` [(2R)-1-((1-(4-(4-methyl-1H-pyrazol-1-yl)pyridin-3-yl)piperidin-4-yl)carbonyl)pyrrolidine-2-carbonitrile], the “CSD events (effect of treatment)” value [1] was “markedly reduced”, the “average number of KCl-induced CSDs” value ([1]; counted over 2 hours, vehicle 10.00) was 4.75 and the “average number of CBF changes” value ([1]; over 2 hours, vehicle 22.75) was 15.75.
For `O=C(c1cccnc1-c1ccncc1)N1CCC(O)(Cc2ccccc2)CC1` [(4-benzyl-4-hydroxypiperidin-1-yl) (2,4′-bipyridin-3-yl)methanone], the “allodynia threshold (effect of treatment)” value ([2]; C57 mice with ischemic injury) was “markedly increased” and the “cumulative score of paw withdraw threshold over the study period” value ([2]; C57 mice, 3-hour ischemia and 0.5-hour reperfusion at a hind limb, von Frey filaments, vehicle 9.0, sham 17.7) was 16.2.
